Where two headings read alike, the source gives them in different places.
Tests used:
HCV NS5B = biological target: T1, HCV NS5B (Hepatitis C virus genotype 1b, UniProt Q9WMX2); assay: HCV NS5B RdRp enzyme assay (standard / modified); format: biochemical; conditions: HCV RdRp genotype 1b; standard or modified assay not specified; read-out: IC50
T1 construct: The protein was expressed with an 18 amino acid C-terminal truncation to enhance the solubility; made in house; host or cells: E. coli BL21(DE3)
Experimental: HCV NS5B RdRp cloning, expression, and purification. The cDNA encoding the NS5B protein of HCV, genotype 1b, was cloned into the pET21a expression vector. The protein was expressed with an 18 amino acid C-terminal truncation to enhance the solubility. The E. coli competent cell line BL21(DE3) was used for expression of the protein. Cultures were grown at 37° C. for ˜4 hours until the cultures reached an optical density of 2.0 at 600 nm. The cultures were cooled to 20° C. and induced with 1 mM IPTG. Fresh ampicillin was added to a final concentration of 50 μg/ml and the cells were grown overnight at 20° C.
Cell pellets (3 L) were lysed for purification to yield 15-24 mgs of purified NS5B. The lysis buffer consisted of 20 mM Tris-HCl, pH 7.4, 500 mM NaCl, 0.5% triton X-100, 1 mM DTT, 1 mM EDTA, 20% glycerol, 0.5 mg/ml lysozyme, 10 mM MgCl2, 15 ug/ml deoxyribonuclease I, and Complete TM protease inhibitor tablets (Roche). After addition of the lysis buffer, frozen cell pellets were resuspended using a tissue homogenizer. To reduce the viscosity of the sample, aliquots of the lysate were sonicated on ice using a microtip attached to a Branson sonicator. The sonicated lysate was centrifuged at 100,000×g for 1 hr at 4° C. and filtered through a 0.2 μm filter unit (Corning).
The protein was purified using two sequential chromatography steps: Heparin sepharose CL-6B and polyU sepharose 4B (Pharmacia). The chromatography buffers were identical to the lysis buffer but contained no lysozyme, deoxyribonuclease I, MgCl2 or protease inhibitor and the NaCl concentration of the buffer was adjusted according to the requirements for charging the protein onto the column. Each column was eluted with a NaCl gradient which varied in length from 5-50 column volumes depending on the column type. After the final chromatography step, the resulting purity of the enzyme is >90% based on SDS-PAGE analysis. The enzyme was aliquoted and stored at −80° C.
Standard HCV NS5B RdRp enzyme assay. HCV RdRp genotype 1b assays were run in a final volume of 60 μl in 96 well plates (Corning 3600). The assay buffer is composed of 20 mM Hepes, pH 7.5, 2.5 mM KCl, 2.5 mM MgCl2, 1 mM DTT, 1.6 U RNAse inhibitor (Promega N2515), 0.01 mg/ml BSA (Sigma B6917), and 2% glycerol. All compounds were serially diluted (3-fold) in DMSO and diluted further in water such that the final concentration of DMSO in the assay was 2%. HCV RdRp genotype 1b enzyme was used at a final concentration of 28 nM. A polyA template was used at 6 nM, and a biotinylated oligo-dT12 primer was used at 180 nM final concentration. Template was obtained commercially (Amersham 27-4110). Biotinylated primer was prepared by Sigma Genosys. 3H-UTP was used at 0.6 μCi (0.29 μM total UTP). Reactions were initiated by the addition of enzyme, incubated at 30 ° C. for 60 min, and stopped by adding 25 μl of 50 mM EDTA containing SPA beads (4 μg/μl, Amersham RPNQ 0007). Plates were read on a Packard Top Count NXT after >1 hr incubation at room temperature.
Modified HCV NS5B RdRp enzyme assay. A modified enzyme assay was performed essentially as described for the standard enzyme assay except for the following: The biotinylated oligo dT12 primer was precaptured on streptavidin-coated SPA beads by mixing primer and beads in assay buffer and incubating at room temperature for one hour. Unbound primer was removed after centrifugation. The primer-bound beads were resuspended in 20 mM Hepes buffer, pH 7.5 and used in the assay at final concentrations of 20 nM primer and 0.67 μg/μl beads. Order of addition in the assay: enzyme (1.75 nM) was added to diluted compound followed by the addition of a mixture of template (0.36 nM), 3H-UTP (0.6 μCi, 0.29 μM), and primer-bound beads, to initiate the reaction; concentrations given are final. Reactions were allowed to proceed for 4 hours at 30° C.
IC50 values for compounds were determined using seven different [I]. […]

HCV replicon cells = assay: HCV replicon FRET / luciferase assay; format: cell-based; conditions: 50% reduction in FRET or luciferase activity in HCV replicon cells, read-out: EC50
Experimental: FRET Assay Preparation. The HCV FRET screening assay was performed in 96-well cell culture plates. The FRET peptide (Anaspec, Inc.) (Taliani et al., Anal. Biochem. 1996, 240, 60-67) contains a fluorescence donor, EDANS, near one end of the peptide and an acceptor, DABCYL, near the other end. The fluorescence of the peptide is quenched by […] resonance energy transfer (RET) between the donor and the acceptor, but as the NS3 protease cleaves the peptide the products are released from RET quenching and the fluorescence of the donor becomes apparent. The assay reagent was made as follows: 5× cell Luciferase cell culture lysis reagent from Promega (#E153A) diluted to 1× with dH2O, NaCl added to 150 mM final, the FRET peptide diluted to 20 μM final from a 2 mM stock.
To prepare plates, HCV replicon cells, with or without a Renilla luciferase reporter gene, were trypsinized and plated in a 96-well plate with titrated test compounds added in columns 3 through 12; columns 1 and 2 contained a control compound (HCV control inhibitor), and the bottom row contained cells with DMSO only. The plates were then placed in a CO2 incubator at 37° C.
Assays. Subsequent to addition of the test compounds described above (FRET Assay Preparation), at various times the plate was removed and Alamar blue solution (Trek Diagnostics, #00-100) was added to measure cellular toxicity. After reading in a Cytoflour 4000 instrument (PE Biosystems), plates were rinsed with PBS and then used for FRET assay by the addition of 30 ul of the FRET peptide assay reagent described above (FRET Assay Preparation) per well. The plate was then placed into the Cytoflour 4000 instrument which had been set to 340 excite/490 emission, automatic mode for up to 20 cycles and the plate read in a kinetic mode. Typically, the signal to noise using an endpoint analysis after the reads was at least three-fold. Alternatively, after Alamar blue reading, plates were rinsed with PBS, then used for luciferase assay using the Promega Dual-Glo Luciferase Assay System or the Promega EnduRen Live Cell Substrate assay.
Compound analysis was performed by quantification of the relative HCV replicon inhibition and the relative cytotoxicity values. To calculate cytoxicity values, the average Alamar Blue fluorescence signals from the control wells were set as 100% non-toxic. The individual signals in each of the compound test wells were then divided by the average control signal and multiplied by 100% to determine […]. To calculate the HCV replicon inhibition values, an average background value was obtained from the two wells containing the highest amount of HCV control inhibitor at the end of the assay period. These numbers were similar to those obtained from naïve Huh-7 cells. The background numbers were then subtracted from the average signal obtained from the control wells and this number was used as 100% activity. The individual signals in each of the compound test wells were then divided by the averaged control values after background subtraction and multiplied by 100% to determine percent activity. EC50 values were calculated as the concentration which caused a 50% reduction in FRET or luciferase activity. The two numbers generated for the compound plate, percent cytoxicity and percent activity, were used to determine compounds of interest for further analysis.

T1 sequence (Q9WMX2 2420-2992): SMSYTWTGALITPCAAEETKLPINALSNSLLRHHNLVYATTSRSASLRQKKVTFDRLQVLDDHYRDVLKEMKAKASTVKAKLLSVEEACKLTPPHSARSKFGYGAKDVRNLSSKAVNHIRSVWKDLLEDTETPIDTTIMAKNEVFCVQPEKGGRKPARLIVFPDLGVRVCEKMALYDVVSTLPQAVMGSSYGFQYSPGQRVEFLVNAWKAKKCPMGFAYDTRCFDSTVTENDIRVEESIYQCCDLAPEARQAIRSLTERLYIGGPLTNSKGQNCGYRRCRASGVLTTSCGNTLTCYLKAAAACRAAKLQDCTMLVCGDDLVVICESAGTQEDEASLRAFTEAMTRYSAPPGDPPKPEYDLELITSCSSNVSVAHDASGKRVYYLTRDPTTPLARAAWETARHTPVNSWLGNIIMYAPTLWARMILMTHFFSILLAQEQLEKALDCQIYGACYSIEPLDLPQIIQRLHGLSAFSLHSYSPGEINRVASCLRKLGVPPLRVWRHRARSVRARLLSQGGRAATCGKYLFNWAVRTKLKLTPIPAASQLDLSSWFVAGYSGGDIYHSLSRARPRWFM

SMILES | IC50 (HCV NS5B) [nM] | EC50 (HCV replicon cells; Hepatitis C virus) [nM] | EC50 (HCV replicon cells) [nM]
COc1ccc2c(c1)C1CC1(C(=O)N1C3COC[C@@H]1CN(C)C3)Cn1c-2c(C2CCCCC2)c2ccc(C(=O)NS(=O)(=O)CCC(F)(F)F)cc21 (stereo partly shown) | 2.4 to 500 | 2.4 to 500 | 
COc1ccc2c(c1)C1CC1(C(=O)N1C[C@H]3C[C@@H](C1)c1cccc(=O)n1C3)Cn1c-2c(C2CCCCC2)c2ccc(C(=O)NS(=O)(=O)N(C)C)cc21 (stereo partly shown) | < 70 | 2.4 to 500 | 
COc1ccc2c(c1)C1CC1(C(=O)N1C[C@@H]3C[C@H]1CN3C(=O)OC(C)(C)C)Cn1c-2c(C2CCCCC2)c2ccc(C(=O)NS(=O)(=O)C3CC3)cc21 (stereo partly shown) | 2.4 to 500 | 2.4 to 500 | 
COc1ccc2c(c1)[C@@H]1C[C@]1(C(=O)N1C3CC1CN(C)C3)Cn1c-2c(C2CCCCC2)c2ccc(C(=O)NS(=O)(=O)C(C)C)cc21 | 2.4 to 500 | 2.4 to 500 | 
COc1ccc2c(c1)C1CC1(C(=O)N1C[C@H]3C[C@@H]1CN3CC(C)C)Cn1c-2c(C2CCCCC2)c2ccc(C(=O)NS(=O)(=O)N3CCC3)cc21 (stereo partly shown) | 2.4 to 500 | 2.4 to 500 | 
COc1ccc2c(c1)C1CC1(C(=O)N1C3CC1CN(C)C3)Cn1c-2c(C2CCCCC2)c2ccc(C(=O)NS(=O)(=O)C3CCCC3)cc21 (stereo not shown) | 2.4 to 500 | 2.4 to 500 | 
COc1ccc2c(c1)C1CC1(C(=O)N1C3CCCC1CN(C)C3)Cn1c-2c(C2CCCCC2)c2ccc(C(=O)NS(=O)(=O)C(C)C)cc21 (stereo not shown) | 2.4 to 500 | 2.4 to 500 | 
CCN(C)S(=O)(=O)NC(=O)c1ccc2c(C3CCCCC3)c3n(c2c1)CC1(C(=O)N2C4CC2CN(C)C4)CC1c1cc(OC)ccc1-3 (stereo not shown) | 2.4 to 500 | 2.4 to 500 | 
COc1ccc2c(c1)C1CC1(C(=O)N1CCN3CCC1CC3)Cn1c-2c(C2CCCCC2)c2ccc(C(=O)NS(C)(=O)=O)cc21 (stereo not shown) | 2.4 to 500 | 2.4 to 500 | 
COc1ccc2c(c1)[C@@H]1C[C@]1(C(=O)N1C3CCCC1CN(C)C3)Cn1c-2c(C2CCCCC2)c2ccc(C(=O)NS(=O)(=O)N(C)C)cc21 | 2.4 to 500 | 2.4 to 500 | 
COc1ccc2c(c1)C1CC1(C(=O)N1CC3(C)CN(C)CC(C)(C1)C3)Cn1c-2c(C2CCCCC2)c2ccc(C(=O)NS(C)(=O)=O)cc21 (stereo not shown) | 2.4 to 500 | 2.4 to 500 | 
CCN1C[C@H]2C[C@@H]1CN2C(=O)C12CC1c1cc(OC)ccc1-c1c(C3CCCCC3)c3ccc(C(=O)NS(=O)(=O)C4CC4)cc3n1C2 (stereo partly shown) [drawing 44] | 2.4 to 500 |  | 2.4 to 500
COc1ccc2c(c1)C1CC1(C(=O)N1C3CC1CN(C)C3)Cn1c-2c(C2CCCCC2)c2ccc(C(=O)NS(=O)(=O)CC(C)C)cc21 (stereo not shown) | 2.4 to 500 | 2.4 to 500 | 
COc1ccc2c(c1)C1CC1(C(=O)N1[C@@H]3C[C@H]1CN(C)C3)Cn1c-2c(C2CCCCC2)c2ccc(C(=O)NS(=O)(=O)C3CC3)cc21 (stereo partly shown) | 2.4 to 500 | 2.4 to 500 | 
COc1ccc2c(c1)C1CC1(C(=O)N1CCN3CCC1CC3)Cn1c-2c(C2CCCCC2)c2ccc(C(=O)NS(=O)(=O)N3CCC3)cc21 (stereo not shown) | 2.4 to 500 | 2.4 to 500 | 
COc1ccc2c(c1)[C@@H]1C[C@]1(C(=O)N1C3CN(C)CC1CN(C(C)=O)C3)Cn1c-2c(C2CCCCC2)c2ccc(C(=O)NS(=O)(=O)N(C)C)cc21 | 2.4 to 500 | 2.4 to 500 | 
COc1ccc2c(c1)[C@@H]1C[C@]1(C(=O)N1CC3CCC1CN3C)Cn1c-2c(C2CCCCC2)c2ccc(C(=O)NS(=O)(=O)N(C)C)cc21 (stereo partly shown) | 2.4 to 500 | 2.4 to 500 | 
COc1ccc2c(c1)C1CC1(C(=O)N1C3CC1CN(C)C3)Cn1c-2c(C2CCCCC2)c2ccc(C(=O)NS(=O)(=O)CC(F)F)cc21 (stereo not shown) | 2.4 to 500 | 2.4 to 500 | 
COc1ccc2c(c1)C1CC1(C(=O)N1[C@@H]3C[C@H]1CN(C)C3)Cn1c-2c(C2CCCCC2)c2ccc(C(=O)NS(N)(=O)=O)cc21 (stereo partly shown) | 2.4 to 500 | 2.4 to 500 | 
COc1ccc2c(c1)C1CC1(C(=O)N1C3CCCC1CN(C)C3)Cn1c-2c(C2CCCCC2)c2ccc(C(=O)NS(=O)(=O)N3CCOCC3)cc21 (stereo not shown) | 2.4 to 500 | 2.4 to 500 | 
COc1ccc2c(c1)[C@@H]1C[C@]1(C(=O)N1C3CCCC1C(=O)N(C)C3=O)Cn1c-2c(C2CCCCC2)c2ccc(C(=O)NS(=O)(=O)N(C)C)cc21 | 2.4 to 500 | 2.4 to 500 | 
COc1ccc2c(c1)C=C(C(=O)N1C3CCCC1CN(C)C3)Cn1c-2c(C2CCCCC2)c2ccc(C(=O)NS(=O)(=O)N(C)C)cc21 | 2.4 to 500 | 2.4 to 500 | 
COc1ccc2c(c1)C1CC1(C(=O)N1C[C@@H]3C[C@H]1CN3C)Cn1c-2c(C2CCCCC2)c2ccc(C(=O)NS(=O)(=O)N3CCC3)cc21 (stereo partly shown) | 2.4 to 500 | 2.4 to 500 | 
COc1ccc2c(c1)C1CC1(C(=O)N1C3CC1CN(Cc1ccccc1)C3)Cn1c-2c(C2CCCCC2)c2ccc(C(=O)NS(=O)(=O)C(C)C)cc21 (stereo not shown) | 2.4 to 500 | 2.4 to 500 | 
COc1ccc2c(c1)C1CC1(S(=O)(=O)N1C3CC1CN(C)C3)Cn1c-2c(C2CCCCC2)c2ccc(C(=O)NS(=O)(=O)C3CC3)cc21 (stereo not shown) | 2.4 to 500 | 2.4 to 500 | 
COc1ccc2c(c1)C1CC1(C(=O)N1CCN3CCC1C3)Cn1c-2c(C2CCCCC2)c2ccc(C(=O)NS(=O)(=O)N(C)C)cc21 (stereo not shown) | 2.4 to 500 | 2.4 to 500 | 
